pIC50: −log10 of the molar value.
Target: T1, NTCP (Homo sapiens, UniProt Q14973)
T1 sequence (Q14973 1-349): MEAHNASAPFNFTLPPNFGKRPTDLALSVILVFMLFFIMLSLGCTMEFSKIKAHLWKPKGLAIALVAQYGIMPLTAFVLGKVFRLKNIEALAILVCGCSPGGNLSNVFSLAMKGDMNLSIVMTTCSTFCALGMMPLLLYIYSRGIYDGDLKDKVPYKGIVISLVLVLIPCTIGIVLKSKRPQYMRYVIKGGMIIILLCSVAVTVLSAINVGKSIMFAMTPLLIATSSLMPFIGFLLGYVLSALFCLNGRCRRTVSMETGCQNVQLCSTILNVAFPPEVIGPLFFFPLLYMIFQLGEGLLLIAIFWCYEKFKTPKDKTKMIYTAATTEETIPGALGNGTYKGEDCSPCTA
Assay: [3H]-TCA uptake assay (NTCP inhibition)
Type: cell-based
Outline: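 PTH and HepG2-NTCP cells kept 24 h in PMM to induce NTCP, then exposed 2 h to test compounds or DMSO. Uptake of 1 μM [3H]-taurocholate in Na+ Ringer's buffer (145 mM Na) ran 15 min at 37° C. Cells washed, lysed in 1% Triton X-100, and radioactivity counted by liquid scintillation.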

[1] = IC50, given as a range, marked * (asterisk not explained)
[2] = given as a range, assay not given
[3] = IC50, given as a range, assay not given

| SMILES | pIC50 [1] | IC50 [2] [nM] | other results |
| --- | --- | --- | --- |
| CCC1NC(=O)C(C2OC(OCc3cccc(OCC4CCOCC4)c3)CC2C)N(C)C(=O)C(C(C)C)N(C)C(=O)C(CC(C)C)N(C)C(=O)C(CC(C)C)N(C)C(=O)C(C)NC(=O)C(C)NC(=O)C(CC(C)C)N(C)C(=O)C(C(C)C)NC(=O)C(CC(C)C)N(C)C(=O)CN(C)C1=O (stereo not shown) [Compound 105] | 4.00 to 6.00 | – | – |
| CCC1NC(=O)C(C2OC(Oc3cccc(OCc4ccccc4)c3)CC2C)N(C)C(=O)C(C(C)C)N(C)C(=O)C(CC(C)C)N(C)C(=O)C(CC(C)C)N(C)C(=O)C(C)NC(=O)C(C)NC(=O)C(CC(C)C)N(C)C(=O)C(C(C)C)NC(=O)C(CC(C)C)N(C)C(=O)CN(C)C1=O (single isomer, unassigned) [Compound 12A-o] | – | 1 to 1000 | – |
| CCC1NC(=O)C(C2OC(Oc3ccc(Cl)c(OCCO)c3)CC2C)N(C)C(=O)C(C(C)C)N(C)C(=O)C(CC(C)C)N(C)C(=O)C(CC(C)C)N(C)C(=O)C(C)NC(=O)C(C)NC(=O)C(CC(C)C)N(C)C(=O)C(C(C)C)NC(=O)C(CC(C)C)N(C)C(=O)CN(C)C1=O (stereo not shown) [Compound 46A-o] | 4.00 to 6.00 | – | – |
| CCOc1cccc(OC2CC(C)C(C3C(=O)NC(CC)C(=O)N(C)CC(=O)N(C)C(CC(C)C)C(=O)NC(C(C)C)C(=O)N(C)C(CC(C)C)C(=O)NC(C)C(=O)NC(C)C(=O)N(C)C(CC(C)C)C(=O)N(C)C(CC(C)C)C(=O)N(C)C(C(C)C)C(=O)N3C)O2)c1 (stereo not shown) [Compound 29A-o] | 4.00 to 6.00 | – | – |
| CCC1NC(=O)C(C2OC(Sc3cccc(OCc4cccc(F)c4)c3)CC2C)N(C)C(=O)C(C(C)C)N(C)C(=O)C(CC(C)C)N(C)C(=O)C(CC(C)C)N(C)C(=O)C(C)NC(=O)C(C)NC(=O)C(CC(C)C)N(C)C(=O)C(C(C)C)NC(=O)C(CC(C)C)N(C)C(=O)CN(C)C1=O [Compound 20A, [2-((2R,3R)-5-(3-(3-fluorobenzyloxy)phenylthio)-3-methyltetrahydrofuran-2-yl)-2-(methylamino)acetic acid]^1-cyclosporin A] | – | 1 to 1000 | – |
| CCC1NC(=O)C(C2OC(OCc3ccc4c(c3)OCO4)CC2C)N(C)C(=O)C(C(C)C)N(C)C(=O)C(CC(C)C)N(C)C(=O)C(CC(C)C)N(C)C(=O)C(C)NC(=O)C(C)NC(=O)C(CC(C)C)N(C)C(=O)C(C(C)C)NC(=O)C(CC(C)C)N(C)C(=O)CN(C)C1=O [Compound 100A, [2-((2R,3R)-5-(benzo[d][1,3]dioxol-5-ylmethoxy)-3-methyltetrahydrofuran-2-yl)-2-(methylamino)acetic acid]^1-cyclosporin A] | – | 1 to 1000 | – |
| CCC1NC(=O)C(C2OC(Sc3cccc(OCc4cccnc4)c3)CC2C)N(C)C(=O)C(C(C)C)N(C)C(=O)C(CC(C)C)N(C)C(=O)C(CC(C)C)N(C)C(=O)C(C)NC(=O)C(C)NC(=O)C(CC(C)C)N(C)C(=O)C(C(C)C)NC(=O)C(CC(C)C)N(C)C(=O)CN(C)C1=O [Compound 53A, [2-((2R,3R)-3-methyl-5-(3-(pyridin-3-ylmethoxy)phenylthio)tetrahydrofuran-2-yl)-2-(methylamino)acetic acid]^1-cyclosporin A] | – | 1 to 1000 | – |
| CCC1NC(=O)C(C2OC(Sc3cccc(OCCC4CCCN4C)c3)CC2C)N(C)C(=O)C(C(C)C)N(C)C(=O)C(CC(C)C)N(C)C(=O)C(CC(C)C)N(C)C(=O)C(C)NC(=O)C(C)NC(=O)C(CC(C)C)N(C)C(=O)C(C(C)C)NC(=O)C(CC(C)C)N(C)C(=O)CN(C)C1=O [Compound 15A, [2-((2R,3R)-3-methyl-5-(3-(2-(1-methylpyrrolidin-2-yl)ethoxy)phenylthio)tetrahydrofuran-2-yl)-2-(methylamino)acetic acid]^1-cyclosporin A] | – | – | pIC50 [3]: 5.00 to 6.00 |
| CCC1NC(=O)C(C2OC(Oc3cccc(OCc4ccncc4)c3)CC2C)N(C)C(=O)C(C(C)C)N(C)C(=O)C(CC(C)C)N(C)C(=O)C(CC(C)C)N(C)C(=O)C(C)NC(=O)C(C)NC(=O)C(CC(C)C)N(C)C(=O)C(C(C)C)NC(=O)C(CC(C)C)N(C)C(=O)CN(C)C1=O (stereo not shown) [Compound 54A-o] | 4.00 to 6.00 | – | – |
| CCC1NC(=O)C(C2OC(Oc3c(OC)cccc3OC)CC2C)N(C)C(=O)C(C(C)C)N(C)C(=O)C(CC(C)C)N(C)C(=O)C(CC(C)C)N(C)C(=O)C(C)NC(=O)C(C)NC(=O)C(CC(C)C)N(C)C(=O)C(C(C)C)NC(=O)C(CC(C)C)N(C)C(=O)CN(C)C1=O (stereo not shown) [Compound 36A-o] | 4.00 to 6.00 | – | – |
| CCC1NC(=O)C(C2OC(Oc3ccc(Cl)c(OCC4CCOCC4)c3)CC2C)N(C)C(=O)C(C(C)C)N(C)C(=O)C(CC(C)C)N(C)C(=O)C(CC(C)C)N(C)C(=O)C(C)NC(=O)C(C)NC(=O)C(CC(C)C)N(C)C(=O)C(C(C)C)NC(=O)C(CC(C)C)N(C)C(=O)CN(C)C1=O (stereo not shown) [Compound 43A-o] | 4.00 to 6.00 | – | – |
| CCC1NC(=O)C(C2OC(OCc3cc(F)c(Cl)cc3Cl)CC2C)N(C)C(=O)C(C(C)C)N(C)C(=O)C(CC(C)C)N(C)C(=O)C(CC(C)C)N(C)C(=O)C(C)NC(=O)C(C)NC(=O)C(CC(C)C)N(C)C(=O)C(C(C)C)NC(=O)C(CC(C)C)N(C)C(=O)CN(C)C1=O (single isomer, unassigned) [Compound 101A] | – | 1 to 1000 | – |
| CCC1NC(=O)C(C2OC(Sc3cccc(OCc4ccc5ccc(=O)oc5c4)c3)CC2C)N(C)C(=O)C(C(C)C)N(C)C(=O)C(CC(C)C)N(C)C(=O)C(CC(C)C)N(C)C(=O)C(C)NC(=O)C(C)NC(=O)C(CC(C)C)N(C)C(=O)C(C(C)C)NC(=O)C(CC(C)C)N(C)C(=O)CN(C)C1=O [Compound 58A, [2-((2R,3R)-3-methyl-5-(3-((2-oxo-2H-chromen-7-yl)methoxy)phenylthio)tetrahydrofuran-2-yl)-2-(methylamino)acetic acid]^1-cyclosporin A] | – | 1 to 1000 | – |
| CCC1NC(=O)C(C2OC(Sc3cccc(OCc4ccc5c(c4)OCO5)c3)CC2C)N(C)C(=O)C(C(C)C)N(C)C(=O)C(CC(C)C)N(C)C(=O)C(CC(C)C)N(C)C(=O)C(C)NC(=O)C(C)NC(=O)C(CC(C)C)N(C)C(=O)C(C(C)C)NC(=O)C(CC(C)C)N(C)C(=O)CN(C)C1=O [Compound 18A, [2-((2R,3R)-5-(3-(benzo[d][1,3]dioxol-5-ylmethoxy)phenylthio)-3-methyltetrahydrofuran-2-yl)-2-(methylamino)acetic acid]^1-cyclosporin A] | – | 1 to 1000 | – |
| CCC1NC(=O)C(C2OC(OC(C)c3ccc(Cl)c(Cl)c3)CC2C)N(C)C(=O)C(C(C)C)N(C)C(=O)C(CC(C)C)N(C)C(=O)C(CC(C)C)N(C)C(=O)C(C)NC(=O)C(C)NC(=O)C(CC(C)C)N(C)C(=O)C(C(C)C)NC(=O)C(CC(C)C)N(C)C(=O)CN(C)C1=O (single isomer, unassigned) [Compound 96A] | – | 1 to 1000 | – |
| CCC1NC(=O)C(C2OC(Oc3ccc(SCCCS(=O)(=O)O)cc3)CC2C)N(C)C(=O)C(C(C)C)N(C)C(=O)C(CC(C)C)N(C)C(=O)C(CC(C)C)N(C)C(=O)C(C)NC(=O)C(C)NC(=O)C(CC(C)C)N(C)C(=O)C(C(C)C)NC(=O)C(CC(C)C)N(C)C(=O)CN(C)C1=O (stereo not shown) [Compound 10A-o] | 4.00 to 6.00 | – | – |
| CCC1NC(=O)C(C2OC(OCc3ccc(OC)cc3)CC2C)N(C)C(=O)C(C(C)C)N(C)C(=O)C(CC(C)C)N(C)C(=O)C(CC(C)C)N(C)C(=O)C(C)NC(=O)C(C)NC(=O)C(CC(C)C)N(C)C(=O)C(C(C)C)NC(=O)C(CC(C)C)N(C)C(=O)CN(C)C1=O [Compound 83A, [2-((2R,3R)-5-(4-methoxybenzyloxy)-3-methyltetrahydrofuran-2-yl)-2-(methylamino)acetic acid]^1-cyclosporin A] | – | 1 to 1000 | – |
| CCC1NC(=O)C(C2OC(Sc3ccc4ccccc4c3)CC2C)N(C)C(=O)C(C(C)C)N(C)C(=O)C(CC(C)C)N(C)C(=O)C(CC(C)C)N(C)C(=O)C(C)NC(=O)C(C)NC(=O)C(CC(C)C)N(C)C(=O)C(C(C)C)NC(=O)C(CC(C)C)N(C)C(=O)CN(C)C1=O (stereo not shown) [Compound 62] | 4.00 to 6.00 | – | – |
| CCC1NC(=O)C(C2OC(OCc3ccc(OCCN(C)C)cc3)CC2C)N(C)C(=O)C(C(C)C)N(C)C(=O)C(CC(C)C)N(C)C(=O)C(CC(C)C)N(C)C(=O)C(C)NC(=O)C(C)NC(=O)C(CC(C)C)N(C)C(=O)C(C(C)C)NC(=O)C(CC(C)C)N(C)C(=O)CN(C)C1=O [Compound 87A, [2-((2R,3R)-5-(4-(2-(dimethylamino)ethoxy)benzyloxy)-3-methyltetrahydrofuran-2-yl)-2-(methylamino)acetic acid]^1-cyclosporin A] | – | – | pIC50 [3]: 5.00 to 6.00 |
| CCC1NC(=O)C(C2OC(Sc3cc(OC)cc(OCc4ccccc4)c3)CC2C)N(C)C(=O)C(C(C)C)N(C)C(=O)C(CC(C)C)N(C)C(=O)C(CC(C)C)N(C)C(=O)C(C)NC(=O)C(C)NC(=O)C(CC(C)C)N(C)C(=O)C(C(C)C)NC(=O)C(CC(C)C)N(C)C(=O)CN(C)C1=O (stereo not shown) [Compound 65] | – | – | pIC50 (given as a range, marked * (asterisk not explained)): 4.00 to 6.00 |
| CCC1NC(=O)C(C2OC(Oc3cccc(O)c3)CC2C)N(C)C(=O)C(C(C)C)N(C)C(=O)C(CC(C)C)N(C)C(=O)C(CC(C)C)N(C)C(=O)C(C)NC(=O)C(C)NC(=O)C(CC(C)C)N(C)C(=O)C(C(C)C)NC(=O)C(CC(C)C)N(C)C(=O)CN(C)C1=O (stereo not shown) [Compound 25A-o] | 4.00 to 6.00 | – | – |
| CCC1NC(=O)C(C2OC(Sc3cccc(OC)c3)CC2C)N(C)C(=O)C(C(C)C)N(C)C(=O)C(CC(C)C)N(C)C(=O)C(CC(C)C)N(C)C(=O)C(C)NC(=O)C(C)NC(=O)C(CC(C)C)N(C)C(=O)C(C(C)C)NC(=O)C(CC(C)C)N(C)C(=O)CN(C)C1=O [Compound 28A, [2-((2R,3R)-5-(3-methoxyphenylthio)-3-methyltetrahydrofuran-2-yl)-2-(methylamino)acetic acid]^1-cyclosporin A] | – | 1 to 1000 | – |

Source: patent US10961231B2, “NTCP inhibitors” (National Institute of Biological Sciences, Beijing, priority 2018, dated 2021)
